According to patent US20230416225A1, “DIAMINOPYRIMIDINE CARBOXAMIDE INHIBITORS OF HPK1” (MERCK SHARP & DOHME LLC, priority 2020, published 2023):

Each compound was assayed against T1, Human HPK1, catalytic domain (Homo sapiens, UniProt Q92918) (assay: HPK1-SLP76 TR-FRET assay). Conditions: 75 pM HPK1, 10 uM ATP, 10 nM SLP76, 30 min compound pre-incubation.
T1 construct: purchased Carna
T1 sequence (Q92918 1-346): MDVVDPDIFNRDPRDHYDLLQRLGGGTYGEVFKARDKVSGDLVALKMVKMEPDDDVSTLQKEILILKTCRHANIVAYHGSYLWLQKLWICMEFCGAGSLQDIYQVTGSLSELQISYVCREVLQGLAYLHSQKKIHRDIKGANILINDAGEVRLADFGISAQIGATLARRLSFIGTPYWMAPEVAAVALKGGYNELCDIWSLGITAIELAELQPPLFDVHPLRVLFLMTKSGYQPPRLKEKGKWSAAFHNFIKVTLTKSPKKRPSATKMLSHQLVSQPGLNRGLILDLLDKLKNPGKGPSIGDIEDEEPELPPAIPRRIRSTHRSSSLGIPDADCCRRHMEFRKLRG
Format: biochemical

Row | SMILES | IC50
1 | NC(=O)c1cnc(Nc2cnn(CC(F)(F)F)c2)nc1Nc1cccc2c1CCNC2=O [Example 7-45, 4-[(1-oxo-1,2,3,4-tetrahydroisoquinolin-5-yl)amino]-2-{[1-(2,2,2-trifluoroethyl)-1H-pyrazol-4-yl]amino}pyrimidine-5-carboxamide] | 19.5 nM
2 | CC(C1CC1)n1cc(Nc2ncc(C(N)=O)c(Nc3cccc4c3CCNC4=O)n2)cn1 (stereo not drawn) [Example 7-46, 2-{[1-(1-cyclopropylethyl)-1H-pyrazol-4-yl]amino}-4-[(1-oxo-1,2,3,4-tetrahydroisoquinolin-5-yl)amino]pyrimidine-5-carboxamide] | 0.28 nM
3 | COc1nn(C)cc1Nc1ncc(C(N)=O)c(Nc2cccc3c2CCNC3=O)n1 [Example 7-47, 2-[(3-methoxy-1-methyl-1H-pyrazol-4-yl)amino]-4-[(1-oxo-1,2,3,4-tetrahydroisoquinolin-5-yl)amino]pyrimidine-5-carboxamide] | 3.57 nM
4 | CS(=O)(=O)c1ccc(Nc2ncc(C(N)=O)c(Nc3cccc4c3CCNC4=O)n2)cc1 [Example 7-48, 2-{[4-(methylsulfonyl)phenyl]amino}-4-[(1-oxo-1,2,3,4-tetrahydroisoquinolin-5-yl)amino]pyrimidine-5-carboxamide] | 1.29 nM
5 | COc1cc2c(cc1Nc1ncc(C(N)=O)c(Nc3ccccc3C#N)n1)CN(C)CC2 [Example 7-49, 4-[(2-cyanophenyl)amino]-2-[(6-methoxy-2-methyl-1,2,3,4-tetrahydroisoquinolin-7-yl)amino]pyrimidine-5-carboxamide] | 0.34 nM
6 | CC(C)n1cc(Nc2ncc(C(N)=O)c(Nc3cccc4c3CCNC4=O)n2)cn1 [Example 7-50, 4-[(1-oxo-1,2,3,4-tetrahydroisoquinolin-5-yl)amino]-2-{[1-(propan-2-yl)-1H-pyrazol-4-yl]amino}pyrimidine-5-carboxamide] | 6.24 nM
7 | NC(=O)c1cnc(Nc2cnn(C3CCC3)c2)nc1Nc1cccc2c1CCNC2=O [Example 7-51, 2-[(1-cyclobutyl-1H-pyrazol-4-yl)amino]-4-[(1-oxo-1,2,3,4-tetrahydroisoquinolin-5-yl)amino]pyrimidine-5-carboxamide] | 4.21 nM
8 | NC(=O)c1cnc(Nc2cnn(C3CCNCC3)c2)nc1Nc1cccc2c1CCNC2=O [Example 7-52, 4-[(1-oxo-1,2,3,4-tetrahydroisoquinolin-5-yl)amino]-2-{[1-(piperidin-4-yl)-1H-pyrazol-4-yl]amino}pyrimidine-5-carboxamide] | 0.55 nM
9 | NC(=O)c1cnc(Nc2cnn3c2CCCC3)nc1Nc1cccc2c1CCNC2=O [Example 7-53, 4-[(1-oxo-1,2,3,4-tetrahydroisoquinolin-5-yl)amino]-2-[(4,5,6,7-tetrahydropyrazolo[1,5-a]pyridin-3-yl)amino]pyrimidine-5-carboxamide] | 3.94 nM
10 | Cn1ncc(Nc2ncc(C(N)=O)c(Nc3cccc4c3CCNC4=O)n2)c1C(F)F [Example 7-54, 2-{[5-(difluoromethyl)-1-methyl-1H-pyrazol-4-yl]amino}-4-[(1-oxo-1,2,3,4-tetrahydroisoquinolin-5-yl)amino]pyrimidine-5-carboxamide] | 82.5 nM
11 | Cn1cc(Nc2ncc(C(N)=O)c(Nc3cccc4c3CCNC4=O)n2)c(OCC(F)F)n1 [Example 7-55, 2-{[3-(2,2-difluoroethoxy)-1-methyl-1H-pyrazol-4-yl]amino}-4-[(1-oxo-1,2,3,4-tetrahydroisoquinolin-5-yl)amino]pyrimidine-5-carboxamide] | 15.3 nM
12 | Cn1ncc(Nc2ncc(C(N)=O)c(Nc3cccc4c3CCNC4=O)n2)c1C(F)(F)F [Example 7-56, 2-{[1-methyl-5-(trifluoromethyl)-1H-pyrazol-4-yl]amino}-4-[(1-oxo-1,2,3,4-tetrahydroisoquinolin-5-yl)amino]pyrimidine-5-carboxamide] | 249 nM
13 | NC(=O)c1cnc(Nc2cnn3c2OCCC3)nc1Nc1cccc2c1CCNC2=O [Example 7-57, 2-[(6,7-dihydro-5H-pyrazolo[5,1-b][1,3]oxazin-3-yl)amino]-4-[(1-oxo-1,2,3,4-tetrahydroisoquinolin-5-yl)amino]pyrimidine-5-carboxamide] | 1.31 nM
14 | NC(=O)c1cnc(Nc2cc3n(n2)CCC3)nc1Nc1cccc2c1CCNC2=O [Example 7-58, 2-[(5,6-dihydro-4H-pyrrolo[1,2-b]pyrazol-2-yl)amino]-4-[(1-oxo-1,2,3,4-tetrahydroisoquinolin-5-yl)amino]pyrimidine-5-carboxamide] | 3.65 nM
15 | CS(=O)(=O)Cc1ccc(Nc2ncc(C(N)=O)c(Nc3cccc4c3CCNC4=O)n2)cc1 [Example 7-59, 2-({4-[(methylsulfonyl)methyl]phenyl}amino)-4-[(1-oxo-1,2,3,4-tetrahydroisoquinolin-5-yl)amino]pyrimidine-5-carboxamide] | 2.15 nM
16 | CC(C)(c1ccc(Nc2ncc(C(N)=O)c(Nc3cccc4c3CCNC4=O)n2)cc1)S(C)(=O)=O [Example 7-60, 2-({4-[2-(methylsulfonyl)propan-2-yl]phenyl}amino)-4-[(1-oxo-1,2,3,4-tetrahydroisoquinolin-5-yl)amino]pyrimidine-5-carboxamide] | 0.51 nM
17 | COc1ccc(S(C)(=O)=O)cc1Nc1ncc(C(N)=O)c(Nc2cccc3c2CCN(C)C3)n1 [Example 7-61, 2-{[2-methoxy-5-(methylsulfonyl)phenyl]amino}-4-[(2-methyl-1,2,3,4-tetrahydroisoquinolin-5-yl)amino]pyrimidine-5-carboxamide] | 108 nM
18 | COc1nn(CC(F)(F)F)cc1Nc1ncc(C(N)=O)c(Nc2cccc3c2CCN(C)C3)n1 [Example 7-62, 2-{[3-methoxy-1-(2,2,2-trifluoroethyl)-1H-pyrazol-4-yl]amino}-4-[(2-methyl-1,2,3,4-tetrahydroisoquinolin-5-yl)amino]pyrimidine-5-carboxamide] | 56 nM
19 | COc1ccc(S(C)(=O)=O)cc1Nc1ncc(C(N)=O)c(Nc2cccc3c2CCNC3)n1 [Example 7-63, 2-{[2-methoxy-5-(methylsulfonyl)phenyl]amino}-4-[(1,2,3,4-tetrahydroisoquinolin-5-yl)amino]pyrimidine-5-carboxamide] | 103 nM
20 | CN1Cc2ccc(Nc3ncc(C(N)=O)c(Nc4cccc5c4CCNC5)n3)cc2C1=O [Example 7-64, 2-[(2-methyl-3-oxo-2,3-dihydro-1H-isoindolin-5-yl)amino]-4-[(1,2,3,4-tetrahydroisoquinolin-5-yl)amino]pyrimidine-5-carboxamide] | 3.65 nM
21 | CS(=O)(=O)c1ccc(Nc2ncc(C(N)=O)c(Nc3c(F)cccc3CO)n2)cc1 [Example 7-65, 4-{[2-fluoro-6-(hydroxymethyl)phenyl]amino}-2-{[4-(methylsulfonyl)phenyl]amino}py-rimidine-5-carboxamide] | 91.5 nM
22 | COc1cc2c(cc1Nc1ncc(C(N)=O)c(Nc3cc(C(F)(F)F)cc4c3CCNC4)n1)CN(C)CC2 [Example 7-66, 2-[(6-methoxy-2-methyl-1,2,3,4-tetrahydroisoquinolin-7-yl)amino]-4-{[7-(trifluoromethyl)-1,2,3,4-tetrahydroisoquinolin-5-yl]amino}pyrimidine-5-carboxamide] | 0.15 nM
23 | CS(=O)(=O)Cc1ccc(Nc2ncc(C(N)=O)c(Nc3ccccc3CO)n2)cc1 [Example 7-68, 4-{[2-(hydroxymethyl)phenyl]amino}-2-({4-[(methylsulfonyl)methyl]phenyl}amino)pyrimidine-5-carboxamide] | 14 nM
24 | COc1cc2c(cc1Nc1ncc(C(N)=O)c(Nc3ccccc3I)n1)CN(C)CC2 [Example 7-70, 4-[(2-iodophenyl)amino]-2-[(6-methoxy-2-methyl-1,2,3,4-tetrahydroisoquinolin-7-yl)amino]pyrimidine-5-carboxamide] | 0.15 nM
25 | COc1cc2c(cc1Nc1ncc(C(N)=O)c(Nc3cccc(Br)c3)n1)CN(C)CC2 [Example 7-71, 4-[(3-bromophenyl)amino]-2-[(6-methoxy-2-methyl-1,2,3,4-tetrahydroisoquinolin-7-yl)amino]pyrimidine-5-carboxamide] | 1.49 nM
26 | COc1cc2c(cc1Nc1ncc(C(N)=O)c(Nc3ccc(Br)cc3)n1)CN(C)CC2 [Example 7-72, 4-[(4-bromophenyl)amino]-2-[(6-methoxy-2-methyl-1,2,3,4-tetrahydroisoquinolin-7-yl)amino]pyrimidine-5-carboxamide] | 1.52 nM
27 | COc1cc2c(cc1Nc1ncc(C(N)=O)c(Nc3cccc(CCO)c3)n1)CNCC2 [Example 7-75, 4-{[3-(2-hydroxyethyl)phenyl]amino}-2-[(6-methoxy-1,2,3,4-tetrahydroisoquinolin-7-yl)amino]pyrimidine-5-carboxamide] | 0.99 nM
28 | COc1cc2c(cc1Nc1ncc(C(N)=O)c(Nc3ccccc3-n3ccnn3)n1)CN(C)CC2 [Example 7-77, 2-[(6-methoxy-2-methyl-1,2,3,4-tetrahydroisoquinolin-7-yl)amino]-4-{[2-(1H-1,2,3-triazol-1-yl)phenyl]amino}pyrimidine-5-carboxamide] | 0.23 nM
29 | CCn1nc(C)cc1Nc1nc(Nc2cc3c(cc2OC)CCN(C)C3)ncc1C(N)=O [Example 7-79, 4-((1-ethyl-3-methyl-1H-pyrazol-5-yl)amino)-2-((6-methoxy-2-methyl-1,2,3,4-tetrahydroisoquinolin-7-yl)amino)pyrimidine-5-carboxamide] | 105 nM
30 | COc1cc2c(cc1Nc1ncc(C(N)=O)c(Nc3c(C)nn(C)c3C)n1)CN(C)CC2 [Example 7-80, 2-((6-methoxy-2-methyl-1,2,3,4-tetrahydroisoquinolin-7-yl)amino)-4-((1,3,5-trimethyl-1H-pyrazol-4-yl)amino)pyrimidine-5-carboxamide] | 0.91 nM
